# Non-standard residues stand in square brackets, D forms with d. Residues, ends and D or L forms follow the SMILES beside them.
# Target: T1, αvβ6 Rezeptor (Homo sapiens, UniProt P06756+P18564)
# T1 construct: Die Immobilisierung von löslichem αvβ6 Rezeptor auf Microtiterplatten
# Experiment: αvβ6 / fibronectin receptor binding test (competition of peptide with biotinylated fibronectin on immobilised integrin, ELISA read-out)
# Conditions: for Q-Wert = IC50 Testpeptid / IC50 EMD 271293: standard Ac-RTDLDSLR-NH2, Q values of repeated experiments averaged; for -log Q / Q (IC50[Substanz] / IC50[EMD 271293]): peptides Cyclo-(Arg-Gly-Asp-Leu-D-Asp-Ala-Leu-Arg-R^1), labelled by R^1; for -log Q: Q = IC50[Substanz] / IC50[EMD 271293]; for Q (IC50[Substanz] / IC50[EMD 271293]): ratio to comparison compound EMD 271293
# Excerpt: αvβ6 / Fibronektin Rezeptorbindungstest:
# Die hergestellten erfindungsgemäßen Peptide wurden in Lösung zusammen mit kompetetiv wirkenden Fibronektin an den immobiliserten αvβ6 Rezeptor gebunden und der Q-Wert als Maß für die Selektivität der Bindung des zu testenden Peptids an αvβ6 ermittelt. Der Q-Wert berechnet sich dabei aus dem Quotienten der IC50-Werte von Testpeptid und einem Standard. Als Standard diente das lineare Ac-RTDLDSLR-NH2 (Code EMD 271293) (Lit./Patent vgl Pytela et al. Science 231, 1559, (1986)). Der Bindungstest wurde im einzelnen wie folgt durchgeführt: • Die Immobilisierung von löslichem αvβ6 Rezeptor auf Microtiterplatten erfolgte durch Verdünnung der Proteinlösung in TBS++ und anschliessender Inkubation über Nacht bei 4°C (100 µl/Vertiefung). Unspezifische • Bindungsstellen wurden durch Inkubation (2 h, 37°C) mit 3% (w/v) BSA in TBS++ (200 µl/Vertiefung) blockiert. Überschüssiges BSA wurde durch dreimaliges Waschen mit TBSA++ entfernt. Peptide wurden seriell (1:10) in TBSA++ verdünnt und zusammen mit biotinyliertem Fibronektin (2 µg/ ml) mit dem immobilisierten Integrin inkubiert (50 µl Peptid + 50 µl Ligand pro Vertiefung; 2 h; 37°C). Nicht gebundenes Fibronektin und Peptide wurden durch dreimaliges Waschen mit TBSA++ entfernt. Die Detektion des gebundenen Fibronektin erfolgte durch Inkubation (1 h; 37 °C) mit einem alkalische-Phosphatase-gekoppelten anti-Biotin-Antikörper (Biorad) (1:20000 in TBSA++; 100 µl/Vertiefung). Nach dreimaligem Waschen mit TBSA++ erfolgte die kolorimetrische Detektion durch Inkubation (10-15 min; 25°C, im Dunkeln) mit Substratlösung (5 mg Nitrophenylphosphat, 1 ml Ethanolamin, 4 ml H2O; 100 µl/Vertiefung). Die Enzymreaktion wurde durch Zugabe von 0,4 M NaOH (100 µl/Vertiefung) gestoppt. Die Farbintensität wurde bei 405 nm im ELISA-Meßgerät bestimmt und gegen den Nullwert abgeglichen. Als Nullwert dienten Vertiefungen, die nicht mit Rezeptor beschichtet waren. Als Standard wurde Ac-RTDLDSLR-NH2 eingesetzt. Die IC50-Werte für die getesteten Peptide wurden aus einer Graphik abgelesen und daraus zusammen mit dem IC50-Wert des Standardpeptids der Q-Wert des erfindungsgemäßen Peptids ermittelt. Q-Wert = IC50 Testpeptid/IC50 Standard [formula] Q-Werte aus Versuchswiederholungen wurden gemittelt.
# [1] = biotinylated fibronectin 2 µg/ml
# T1 sequence (P06756 31-992 limits assumed): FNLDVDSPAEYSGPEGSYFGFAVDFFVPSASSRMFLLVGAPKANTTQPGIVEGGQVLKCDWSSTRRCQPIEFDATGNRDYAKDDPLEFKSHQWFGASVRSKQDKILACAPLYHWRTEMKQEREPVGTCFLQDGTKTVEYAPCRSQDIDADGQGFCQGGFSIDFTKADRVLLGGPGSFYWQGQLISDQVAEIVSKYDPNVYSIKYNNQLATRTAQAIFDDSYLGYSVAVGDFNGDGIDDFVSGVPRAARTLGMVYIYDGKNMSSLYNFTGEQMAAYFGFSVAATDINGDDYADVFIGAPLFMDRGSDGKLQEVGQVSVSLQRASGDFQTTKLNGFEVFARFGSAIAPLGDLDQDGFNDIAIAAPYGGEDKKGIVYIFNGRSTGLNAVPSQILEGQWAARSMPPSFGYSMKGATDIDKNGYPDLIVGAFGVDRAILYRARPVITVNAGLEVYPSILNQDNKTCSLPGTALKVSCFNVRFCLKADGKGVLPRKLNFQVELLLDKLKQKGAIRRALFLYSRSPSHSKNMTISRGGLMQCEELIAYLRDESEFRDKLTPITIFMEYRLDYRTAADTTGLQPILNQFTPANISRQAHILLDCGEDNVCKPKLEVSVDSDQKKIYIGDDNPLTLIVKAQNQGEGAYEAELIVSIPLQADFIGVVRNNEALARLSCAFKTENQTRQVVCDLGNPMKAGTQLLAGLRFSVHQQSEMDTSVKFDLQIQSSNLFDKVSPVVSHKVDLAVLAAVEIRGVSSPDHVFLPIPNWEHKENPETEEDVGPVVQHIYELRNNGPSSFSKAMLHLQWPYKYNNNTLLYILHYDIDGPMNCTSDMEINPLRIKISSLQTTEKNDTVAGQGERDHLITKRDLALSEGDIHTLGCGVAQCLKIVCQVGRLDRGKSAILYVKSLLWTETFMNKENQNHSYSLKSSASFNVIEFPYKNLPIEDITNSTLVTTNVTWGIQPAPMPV
# T1 sequence (P18564 22-709 limits assumed): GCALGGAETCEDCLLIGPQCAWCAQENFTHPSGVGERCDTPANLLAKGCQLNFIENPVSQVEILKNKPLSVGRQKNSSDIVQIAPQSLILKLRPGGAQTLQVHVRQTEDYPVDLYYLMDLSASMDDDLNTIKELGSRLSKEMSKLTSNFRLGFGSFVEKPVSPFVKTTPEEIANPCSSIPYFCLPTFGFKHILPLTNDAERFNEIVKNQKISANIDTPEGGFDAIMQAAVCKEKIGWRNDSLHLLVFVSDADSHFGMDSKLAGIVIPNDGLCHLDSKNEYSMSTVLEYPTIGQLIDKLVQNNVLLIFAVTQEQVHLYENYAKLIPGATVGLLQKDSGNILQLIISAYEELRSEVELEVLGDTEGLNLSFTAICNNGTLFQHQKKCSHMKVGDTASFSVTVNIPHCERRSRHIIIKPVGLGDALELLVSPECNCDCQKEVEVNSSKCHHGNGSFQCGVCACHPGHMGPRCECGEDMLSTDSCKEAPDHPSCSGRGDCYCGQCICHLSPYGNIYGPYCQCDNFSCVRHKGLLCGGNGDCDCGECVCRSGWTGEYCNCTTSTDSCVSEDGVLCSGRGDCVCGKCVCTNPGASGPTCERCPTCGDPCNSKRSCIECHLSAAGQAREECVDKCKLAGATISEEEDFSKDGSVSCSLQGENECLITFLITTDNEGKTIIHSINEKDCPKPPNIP
Compound,Q-Wert = IC50 Testpeptid / IC50 EMD 271293 [1],-log Q,Q (IC50[Substanz] / IC50[EMD 271293]),"IC50 (IC50 of the standard peptide, printed in brackets beside its Q value, biotinylated fibronectin 2 µg/ml) [nM]"
CC(C)C[C@@H]1NC(=O)[C@H](C)NC(=O)[C@@H](CC(=O)O)NC(=O)[C@H](CC(C)C)NC(=O)[C@H](CC(=O)O)NC(=O)CNC(=O)[C@H](CCCNC(=N)N)NC(=O)CNC(=O)CNC(=O)CNC(=O)[C@H](CCCNC(=N)N)NC1=O [compound 271593] (cyclo(RGDL[dD]ALRGGG)),"0,03",,,
CC(C)C[C@@H]1NC(=O)[C@H](C)NC(=O)[C@@H](CC(=O)O)NC(=O)[C@H](CC(C)C)NC(=O)[C@H](CC(=O)O)NC(=O)CNC(=O)[C@H](CCCNC(=N)N)NC(=O)CNC(=O)CNC(=O)CNC(=O)[C@H](CCCNC(=N)N)NC1=O [EMD 271593] (cyclo(RGDL[dD]ALRGGG)),,"1,523","0,03",
cyclo-(RGDLdALR-Abu) [EMD 273035],,"1,553","0,028",
CC(C)C[C@@H]1NC(=O)[C@H](C)NC(=O)[C@@H](CC(=O)O)NC(=O)[C@H](CC(C)C)NC(=O)[C@H](CC(=O)O)NC(=O)CNC(=O)[C@H](CCCNC(=N)N)NC(=O)CNC(=O)CNC(=O)[C@H](CCCNC(=N)N)NC1=O [compound 271592] (cyclo(RGDL[dD]ALRGG)),"0,05",,,
CC(=O)N[C@@H](CCCNC(=N)N)C(=O)N[C@H](C(=O)N[C@@H](CC(=O)O)C(=O)N[C@@H](CC(C)C)C(=O)N[C@@H](CC(=O)O)C(=O)N[C@@H](CO)C(=O)N[C@@H](CC(C)C)C(=O)N[C@@H](CCCNC(=N)N)C(N)=O)[C@@H](C)O [compound 271293] (Ac-RTDLDSLR-NH2),"1,00",,,75
"CC(C)C[C@@H]1NC(=O)[C@H](C)NC(=O)[C@@H](CC(=O)O)NC(=O)[C@H](CC(C)C)NC(=O)[C@H](CC(=O)O)NC(=O)CNC(=O)[C@H](CCCNC(=N)N)NC(=O)CNC(=O)[C@H](CCCNC(=N)N)NC1=O [EMD 271591, cyclo-(RGDLdALRG)] (cyclo(RGDL[dD]ALRG))",,"-0,322","2,1",
cyclo-(RGDLdALR-Aha-Aha) [EMD 272958],,"1,444","0,036",
CC(C)C[C@@H]1NC(=O)[C@H](C)NC(=O)[C@@H](CC(=O)O)NC(=O)[C@H](CC(C)C)NC(=O)[C@H](CC(=O)O)NC(=O)CNC(=O)[C@H](CCCNC(=N)N)NC(=O)CNC(=O)CNC(=O)CNC(=O)CNC(=O)CNC(=O)[C@H](CCCNC(=N)N)NC1=O [compound 272962] (cyclo(RGDL[dD]ALRGGGGG)),"0,046",,,

# The remaining lines, values ahead:
Q-Wert = IC50 Testpeptid / IC50 EMD 271293 [1],-log Q,Q (IC50[Substanz] / IC50[EMD 271293]),"IC50 (IC50 of the standard peptide, printed in brackets beside its Q value, biotinylated fibronectin 2 µg/ml) [nM]",Compound
"2,1",,,,CC(C)C[C@@H]1NC(=O)[C@H](C)NC(=O)[C@@H](CC(=O)O)NC(=O)[C@H](CC(C)C)NC(=O)[C@H](CC(=O)O)NC(=O)CNC(=O)[C@H](CCCNC(=N)N)NC(=O)CNC(=O)[C@H](CCCNC(=N)N)NC1=O [compound 271591] (cyclo(RGDL[dD]ALRG))
"0,05",,,,CC(C)C[C@@H]1NC(=O)[C@H](C)NC(=O)[C@@H](CC(=O)O)NC(=O)[C@H](CC(C)C)NC(=O)[C@H](CC(=O)O)NC(=O)CNC(=O)[C@H](CCCNC(=N)N)NC(=O)CNC(=O)CNC(=O)CNC(=O)CNC(=O)CNC(=O)CNC(=O)[C@H](CCCNC(=N)N)NC1=O [compound 271594] (cyclo(RGDL[dD]ALRGGGGGG))
,"1,523","0,03",,cyclo-(RGDLdALR-Abu-Abu) [EMD 272914]
,"1,444","0,036",,cyclo-(RGDLdALR-Aha) [EMD 272959]
"0,033",,,,CC(C)C[C@@H]1NC(=O)[C@H](C)NC(=O)[C@@H](CC(=O)O)NC(=O)[C@H](CC(C)C)NC(=O)[C@H](CC(=O)O)NC(=O)CNC(=O)[C@H](CCCNC(=N)N)NC(=O)CNC(=O)CNC(=O)CNC(=O)CNC(=O)[C@H](CCCNC(=N)N)NC1=O [compound 272961] (cyclo(RGDL[dD]ALRGGGG))
,"1,481","0,033",,"CC(C)C[C@@H]1NC(=O)[C@H](C)NC(=O)[C@@H](CC(=O)O)NC(=O)[C@H](CC(C)C)NC(=O)[C@H](CC(=O)O)NC(=O)CNC(=O)[C@H](CCCNC(=N)N)NC(=O)CNC(=O)CNC(=O)CNC(=O)CNC(=O)[C@H](CCCNC(=N)N)NC1=O [EMD 272961, cyclo-(RGDLdALRGGGG)] (cyclo(RGDL[dD]ALRGGGG))"
,"1,337","0,046",,"CC(C)C[C@@H]1NC(=O)[C@H](C)NC(=O)[C@@H](CC(=O)O)NC(=O)[C@H](CC(C)C)NC(=O)[C@H](CC(=O)O)NC(=O)CNC(=O)[C@H](CCCNC(=N)N)NC(=O)CNC(=O)CNC(=O)CNC(=O)CNC(=O)CNC(=O)[C@H](CCCNC(=N)N)NC1=O [EMD 272962, cyclo-(RGDLdALRGGGGG)] (cyclo(RGDL[dD]ALRGGGGG))"
,"1,301","0,05",,"CC(C)C[C@@H]1NC(=O)[C@H](C)NC(=O)[C@@H](CC(=O)O)NC(=O)[C@H](CC(C)C)NC(=O)[C@H](CC(=O)O)NC(=O)CNC(=O)[C@H](CCCNC(=N)N)NC(=O)CNC(=O)CNC(=O)CNC(=O)CNC(=O)CNC(=O)CNC(=O)[C@H](CCCNC(=N)N)NC1=O [EMD 271594, cyclo-(RGDLdALRGGGGGG)] (cyclo(RGDL[dD]ALRGGGGGG))"
,"1,301","0,05",,"CC(C)C[C@@H]1NC(=O)[C@H](C)NC(=O)[C@@H](CC(=O)O)NC(=O)[C@H](CC(C)C)NC(=O)[C@H](CC(=O)O)NC(=O)CNC(=O)[C@H](CCCNC(=N)N)NC(=O)CNC(=O)CNC(=O)[C@H](CCCNC(=N)N)NC1=O [EMD 271592, cyclo-(RGDLdALRGG)] (cyclo(RGDL[dD]ALRGG))"

# From EP1196433B1, “CYCLIC PEPTIDE DERIVATIVES AS INHIBITORS OF INTEGRIN ALPHA v BETA 6” (Merck Patent GmbH, priority 1999, dated 2001)
